Reference: patent US10590123B2, “Pesticidally active amide heterocyclic derivatives with sulphur containing substituents” (SYNGENTA PARTICIPATIONS AG, priority 2014, dated 2020)

Key:
Assay type in all cases: in vivo
[1] = tested on: Spodoptera littoralis (Egyptian Cotton Leaf Worm); test: Example B1: Activity against Spodoptera littoralis, sprayed cotton leaf discs; details: foliar, 72 h, application rate 200 ppm, L1 larvae, 3 days after infestation, read-out: control in at least one of the three categories (mortality, anti-feedancy or growth inhibition)
Description: Example B1: Activity Against Spodoptera littoralis (Egyptian Cotton Leaf Worm)
Cotton leaf discs were placed on agar in 24-well microtiter plates and sprayed with aqueous test solutions prepared from 10′000 ppm DMSO stock solutions. After drying the leaf discs were infested with five L1 larvae. The samples were assessed for mortality, anti-feedant effect, and growth inhibition in comparison to untreated samples 3 days after infestation. Control of Spodoptera littoralis by a test sample is when at least one of mortality, anti-feedant effect, and growth inhibition is higher than the untreated sample.

[2] = tested on: Plutella xylostella (Diamond Back Moth); test: Example B3: Activity against Plutella xylostella, artificial diet; details: 120 h, application rate 200 ppm, L2 larvae, 5 days after infestation, read-out: effect in at least one of the two categories (mortality or growth inhibition)
Description: Example B3: Activity Against Plutella xylostella (Diamond Back Moth)
(§1) 24-well microtiter plates with artificial diet were treated with aqueous test solutions prepared from 10′000 ppm DMSO stock solutions by pipetting. After drying, the plates were infested with L2 larvae (10 to 15 per well). The samples were assessed for mortality and growth inhibition in comparison to untreated samples 5 days after infestation.

[3] = tested on: Diabrotica Balteata (Corn Root Worm); test: Example B4: Activity against Diabrotica balteata, sprayed maize sprouts; details: 96 h, application rate 200 ppm, L2 larvae, 4 days after infestation, read-out: effect in at least one of the two categories (mortality or growth inhibition)
Description: Example B4: Activity Against Diabrotica Balteata (Corn Root Worm)
as §1, with “Maize sprouts, placed on an agar layer in 24-well” for “24-well”, “plates” for “plates with artificial diet”, “spraying.” for “pipetting.”, “(6” for “(10”, “10” for “15”, “4” for “5”

[4] = tested on: Euschistus heros (Neotropical Brown Stink Bug); test: Example B7: Activity against Euschistus heros, sprayed soybean leaf; details: 120 h, application rate 200 ppm, N-2 nymphs, 5 days after infestation
Description: Example B7: Activity Against Euschistus heros (Neotropical Brown Stink Bug)
Soybean leaf on agar in 24-well microtiter plates were sprayed with aqueous test solutions prepared from 10′000 ppm DMSO stock solutions. After drying the leaf were infested with N-2 nymphs. The samples were assessed for mortality 5 days after infestation.

[5] = tested on: Myzus persicae (Green Peach Aphid); test: Example B8: Activity against Myzus persicae, sprayed sunflower leaf discs; details: foliar, 144 h, application rate 200 ppm, aphid population of mixed ages, 6 days after infestation
Description: Example B8: Activity Against Myzus persicae (Green Peach Aphid)
Sunflower leaf discs were placed on agar in a 24-well microtiter plate and sprayed with aqueous test solutions prepared from 10′000 ppm DMSO stock solutions. After drying, the leaf discs were infested with an aphid population of mixed ages. The samples were assessed for mortality 6 days after infestation.

[6] = tested on: Spodoptera littoralis (Egyptian Cotton Leaf Worm); test: Example B2: Activity against Spodoptera littoralis, systemic via lettuce roots in agar; details: 144 h, application rate 12.5 ppm, 6 days after infestation, read-out: control in at least one of the three categories (mortality, anti-feedancy or growth inhibition)
Text: Example B2: Activity Against Spodoptera littoralis (Egyptian Cotton Leaf Worm)
Test compounds were applied by pipette from 10′000 ppm DMSO stock solutions into 24-well plates and mixed with agar. Lettuce seeds were placed on the agar and the multi well plate was closed by another plate which contains also agar. After 7 days the roots have absorbed the compound and the lettuce has grown into the lid plate. The lettuce leafs were now cut off into the lid plate. Spodoptera eggs were pipetted through a plastic stencil on a humid gel blotting paper and the plate closed with it.
The samples were assessed for mortality, anti-feedant effect and growth inhibition in comparison to untreated samples 6 days after infestation.

CCS(=O)(=O)c1cc(-c2ccc(C#N)cn2)cnc1C(=O)N(C)c1nnc(C(F)(F)F)s1 [Compound P64, 5-(5-cyano-2-pyridyl)-3-ethylsulfonyl-N-methyl-N-[5-(trifluoromethyl)-1,3,4-thiadiazol-2-yl]pyridine-2-carboxamide]
≥ 80%: percent control (mortality, anti-feedant effect or growth inhibition) at 200 ppm [1] | percent effect (mortality or growth inhibition) at 200 ppm [2] | percent effect (mortality or growth inhibition) at 200 ppm [3] | mortality at 200 ppm [4] | mortality at 200 ppm [5]

CCS(=O)(=O)c1cc(-c2ccc(Cl)cc2Cl)cnc1C(=O)N(C)c1nnc(C(F)(F)F)s1 [Compound P34]
≥ 80%: percent control (mortality, anti-feedant effect or growth inhibition) at 200 ppm [1] | percent effect (mortality or growth inhibition) at 200 ppm [2] | percent effect (mortality or growth inhibition) at 200 ppm [3] | mortality at 200 ppm [4]

CCS(=O)(=O)c1cc(C2(C#N)CC2)cnc1C(=O)N(C)c1nnc(C(F)(F)F)s1 [Compound P18]
≥ 80%: percent control (mortality, anti-feedant effect or growth inhibition) at 200 ppm [1] | percent effect (mortality or growth inhibition) at 200 ppm [2] | percent effect (mortality or growth inhibition) at 200 ppm [3] | mortality at 200 ppm [5]

CCS(=O)(=O)c1cc(-c2cncs2)cnc1C(=O)N(C)c1nnc(C(F)(F)F)s1 [Compound P40]
≥ 80%: percent control (mortality, anti-feedant effect or growth inhibition) at 200 ppm [1] | percent effect (mortality or growth inhibition) at 200 ppm [2] | percent effect (mortality or growth inhibition) at 200 ppm [3] | mortality at 200 ppm [4] | mortality at 200 ppm [5]

CCS(=O)(=O)c1cc(-c2ncc(Cl)cn2)cnc1C(=O)N(C)c1nnc(C(F)(F)F)s1 [Compound P62]
≥ 80%: percent control (mortality, anti-feedant effect or growth inhibition) at 200 ppm [1] | percent effect (mortality or growth inhibition) at 200 ppm [2] | percent effect (mortality or growth inhibition) at 200 ppm [3] | mortality at 200 ppm [4] | mortality at 200 ppm [5]

CCS(=O)(=O)c1cc(-c2ccccn2)cnc1C(=O)N(C)c1nnc(C(F)(F)F)s1 [Compound P54]
≥ 80%: percent control (mortality, anti-feedant effect or growth inhibition) at 200 ppm [1] | percent control (mortality, anti-feedant effect or growth inhibition) at 12.5 ppm [6] | percent effect (mortality or growth inhibition) at 200 ppm [2] | percent effect (mortality or growth inhibition) at 200 ppm [3] | mortality at 200 ppm [4] | mortality at 200 ppm [5]

CCS(=O)(=O)c1cc(-c2cccc(OC(F)(F)F)c2)cnc1C(=O)N(C)c1nnc(C(F)(F)F)s1 [Compound P31]
≥ 80%: percent control (mortality, anti-feedant effect or growth inhibition) at 200 ppm [1] | percent control (mortality, anti-feedant effect or growth inhibition) at 12.5 ppm [6] | percent effect (mortality or growth inhibition) at 200 ppm [2] | percent effect (mortality or growth inhibition) at 200 ppm [3] | mortality at 200 ppm [4]

CCSc1cc(-n2ccc(C(F)(F)F)n2)cnc1C(=O)Nc1nnc(C(F)(F)C(F)(F)F)s1 [Compound P6]
≥ 80%: percent control (mortality, anti-feedant effect or growth inhibition) at 12.5 ppm [6]

CCS(=O)(=O)c1cc(-c2ccc(OC(F)(F)F)cc2)cnc1C(=O)N(C)c1nnc(C(F)(F)F)s1 [Compound P22]
≥ 80%: percent control (mortality, anti-feedant effect or growth inhibition) at 200 ppm [1] | percent effect (mortality or growth inhibition) at 200 ppm [2] | percent effect (mortality or growth inhibition) at 200 ppm [3] | mortality at 200 ppm [4] | mortality at 200 ppm [5]

CCS(=O)(=O)c1cc(-c2ccc(Cl)cc2)c[n+]([O-])c1C(=O)N(C)c1nnc(C(F)(F)F)s1 [Compound P19, 5-(4-chlorophenyl)-3-ethylsulfonyl-N-methyl-1-oxido-N-[5-(trifluoromethyl)-1,3,4-thiadiazol-2-yl]pyridin-1-ium-2-carboxamide]
≥ 80%: percent control (mortality, anti-feedant effect or growth inhibition) at 200 ppm [1] | percent effect (mortality or growth inhibition) at 200 ppm [2] | percent effect (mortality or growth inhibition) at 200 ppm [3] | mortality at 200 ppm [4]

CCS(=O)(=O)c1cc(-c2ncc(C(F)(F)F)cc2F)cnc1C(=O)N(C)c1nnc(C(F)(F)F)s1 [Compound P48]
≥ 80%: percent control (mortality, anti-feedant effect or growth inhibition) at 200 ppm [1] | percent control (mortality, anti-feedant effect or growth inhibition) at 12.5 ppm [6] | percent effect (mortality or growth inhibition) at 200 ppm [2] | percent effect (mortality or growth inhibition) at 200 ppm [3] | mortality at 200 ppm [4]

CCS(=O)(=O)c1cc(-c2cccc3c2OC(F)(F)O3)cnc1C(=O)N(C)c1nnc(C(F)(F)F)s1 [Compound P29]
≥ 80%: percent control (mortality, anti-feedant effect or growth inhibition) at 200 ppm [1] | percent control (mortality, anti-feedant effect or growth inhibition) at 12.5 ppm [6] | percent effect (mortality or growth inhibition) at 200 ppm [2] | percent effect (mortality or growth inhibition) at 200 ppm [3] | mortality at 200 ppm [4] | mortality at 200 ppm [5]

CCSc1cc(-c2ccc(Cl)cc2)cnc1C(=O)N(C)c1nnc(C(F)(F)F)s1 [Compound P1, 5-(4-chlorophenyl)-3-ethylsulfanyl-N-methyl-N-[5-(trifluoromethyl)-1,3,4-thiadiazol-2-yl]pyridine-2-carboxamide]
≥ 80%: percent control (mortality, anti-feedant effect or growth inhibition) at 200 ppm [1] | percent effect (mortality or growth inhibition) at 200 ppm [2] | percent effect (mortality or growth inhibition) at 200 ppm [3] | mortality at 200 ppm [4]

CCS(=O)(=O)c1cc(-c2ccnc(C(F)(F)F)n2)cnc1C(=O)N(C)c1nnc(C(F)(F)F)s1 [Compound P60]
≥ 80%: percent control (mortality, anti-feedant effect or growth inhibition) at 200 ppm [1] | percent effect (mortality or growth inhibition) at 200 ppm [2] | percent effect (mortality or growth inhibition) at 200 ppm [3] | mortality at 200 ppm [4] | mortality at 200 ppm [5]

CCS(=O)(=O)c1cc(-c2ccc(C(F)(F)F)cc2)cnc1C(=O)N(C)c1nnc(C(F)(F)C(F)(F)F)s1 [Compound P11]
≥ 80%: percent control (mortality, anti-feedant effect or growth inhibition) at 200 ppm [1] | percent effect (mortality or growth inhibition) at 200 ppm [2] | percent effect (mortality or growth inhibition) at 200 ppm [3] | mortality at 200 ppm [4]

CCS(=O)(=O)c1cc(-c2ccnc(Cl)c2)cnc1C(=O)N(C)c1nnc(C(F)(F)F)s1 [Compound P57]
≥ 80%: percent control (mortality, anti-feedant effect or growth inhibition) at 200 ppm [1] | percent effect (mortality or growth inhibition) at 200 ppm [2] | percent effect (mortality or growth inhibition) at 200 ppm [3] | mortality at 200 ppm [4] | mortality at 200 ppm [5]

CCS(=O)(=O)c1cc(-n2ccc(C(F)(F)F)n2)cnc1C(=O)N(C)c1nnc(C(F)(F)F)s1 [Compound P17, 3-ethylsulfonyl-N-methyl-5-[3-(trifluoromethyl)pyrazol-1-yl]-N-[5-(trifluoromethyl)-1,3,4-thiadiazol-2-yl]pyridine-2-carboxamide]
≥ 80%: percent control (mortality, anti-feedant effect or growth inhibition) at 200 ppm [1] | percent effect (mortality or growth inhibition) at 200 ppm [2] | percent effect (mortality or growth inhibition) at 200 ppm [3] | mortality at 200 ppm [4]

CCS(=O)(=O)c1cc(-c2ncc(C#N)cn2)cnc1C(=O)N(C)c1nnc(C(F)(F)F)s1 [Compound P63]
≥ 80%: percent control (mortality, anti-feedant effect or growth inhibition) at 200 ppm [1] | percent effect (mortality or growth inhibition) at 200 ppm [2] | percent effect (mortality or growth inhibition) at 200 ppm [3] | mortality at 200 ppm [4]

CCS(=O)(=O)c1cc(-c2cccc(C(F)(F)F)n2)cnc1C(=O)N(C)c1nnc(C(F)(F)F)s1 [Compound P45]
≥ 80%: percent control (mortality, anti-feedant effect or growth inhibition) at 200 ppm [1] | percent effect (mortality or growth inhibition) at 200 ppm [2] | percent effect (mortality or growth inhibition) at 200 ppm [3] | mortality at 200 ppm [5]

CCS(=O)(=O)c1cc(-n2ccc(C(F)(F)F)n2)cnc1C(=O)N(C)c1nnc(C(F)(F)C(F)(F)F)s1 [Compound P15]
≥ 80%: percent control (mortality, anti-feedant effect or growth inhibition) at 200 ppm [1] | percent effect (mortality or growth inhibition) at 200 ppm [2] | percent effect (mortality or growth inhibition) at 200 ppm [3] | mortality at 200 ppm [4]
